Measured values from patent publication US5912248A, “Excitatory amino acid receptor antagonists” (Eli Lilly and Company, priority 1996, dated 1999).

Tested on: metabotropic glutamate receptors
Experiment: displacement of 1S,3R-ACPD-sensitive [^3 H]glutamate binding to rat brain cell membranes
Conditions: crude membranes of rat forebrain
Protocol: The binding of [^3 H]glutamate was conducted with crude membranes of rat forebrain as described by Schoepp and True, Neuroscience Lett., 145, 100-104 (1992) and Wright et al., J. Neurochemistry 63, 938-945, 1994.

| SMILES | activity in the binding test (in words) | IC50 |
| --- | --- | --- |
| NC1(C(=O)O)CC(SCc2ccco2)C2C(C(=O)O)C21 (stereo not drawn) [Example 8, 1SR,2RS,4RS,5SR,6SR-2-Amino-4-((2-furanylmethyl)thio)bicyclo[3.1.0]hexane-2,6-dicarboxylic acid] | essentially inactive | – |
| NC1(C(=O)O)CC(Sc2ccccc2)C2C(C(=O)O)C21 (stereo not drawn) [Example 1, 1SR,2RS,4SR,5SR,6SR-2-Amino-4-(phenylthio)bicyclo[3.1.0]hexane-2,6-dicarboxylic acid] | – | 242 nM |
